2 compounds from US11434227B2, “Broad spectrum antibacterial activity of novel bisbenzimidazoles targeting topoisomerase IA and the synergistic composition of bisbenzimidazole with efflux pump inhibitors against pathogenic bacteria” (Jawaharlal Nehru University (JNU), priority 2016, dated 2022) can be followed below.

Test systems include A. baumannii (AB387); Enterococcus sp. (2105); Enterococcus sp. (1121); P. aeruginosa (MTCC1688); E. coli ATCC25922; P. aeruginosa (Ps 366); Providencia sp. (P592); K. planticola (1164); E. coli KK45; A. baumannii (MTCC1920).
Common to all, as to assay: HN12b in combination with efflux pump inhibitors (CB method, FICI)
Assay [1] relates to K. planticola (MTCC 2272).
The test system of assay [2] is Providencia sp. (MTCC 2102).

As usually defined, the MIC90 is the lowest concentration that inhibits either 90% of growth or 90% of the strains tested, depending on the study. In the case of `N#CC(C#N)=NNc1cccc(Cl)c1` [CCCP, carbonyl cyanide-m-chlorophenyl hydrazone, reference compound], the MIC90 stood at 12 µg/mL with A. baumannii (AB387) (Acinetobacter baumannii); 27.7 µg/mL in the assay on Enterococcus sp. (2105) (Enterococcus); 16.2 µg/mL in the assay with Enterococcus sp. (1121) (Enterococcus); 13.9 µg/mL in [1] (Klebsiella planticola, MTCC2272); 128 µg/mL in the assay on P. aeruginosa (MTCC1688) (Pseudomonas aeruginosa, MTCC1688); 11.8 µg/mL in the assay on E. coli ATCC25922 (Escherichia coli, ATCC25922). In addition, the MIC90 with P. aeruginosa (Ps 366) (Pseudomonas aeruginosa) is 128 µg/mL; with Providencia sp. (P592) (Providencia), 67.2 µg/mL; in the assay with K. planticola (1164) (Klebsiella planticola), 14.7 µg/mL; in the assay with E. coli KK45 (Escherichia coli, KK45) it was 12.3 µg/mL; in assay [2] (Providencia, MTCC2102), 10.9 µg/mL; in the assay with A. baumannii (MTCC1920) (Acinetobacter baumannii, MTCC1920) it was 30.2 µg/mL.
As to “phenylalanine-arginine-β-naphthylamide [PAβN, reference compound]”, the “(BA) MIC90” value was 32 µg/mL in the assay on A. baumannii (AB387) (A. baumannii (AB387), PAβN in presence of HN12b); 59 µg/mL in the assay with Enterococcus sp. (2105) (Enterococcus sp. (2105), PAβN in presence of HN12b); 63 µg/mL in the assay on Enterococcus sp. (1121) (Enterococcus sp. (1121), PAβN in presence of HN12b); 62 µg/mL in assay [1] (K. planticola (MTCC 2272), PAβN in presence of HN12b); 60 µg/mL with P. aeruginosa (MTCC1688) (P. aeruginosa (MTCC1688), PAβN in presence of HN12b); 4.8 µg/mL with E. coli ATCC25922 (E. coli ATCC25922, PAβN in presence of HN12b). For the same compound, the “(BA) MIC90” value in the assay with P. aeruginosa (Ps 366) (P. aeruginosa (Ps 366), PAβN in presence of HN12b) worked out at 55 µg/mL; in the assay on Providencia sp. (P592) (Providencia sp. (P592), PAβN in presence of HN12b) it was 38 µg/mL; in the assay on K. planticola (1164) (K. planticola (1164), PAβN in presence of HN12b) it was 62 µg/mL; in the assay on E. coli KK45 (E. coli KK45, PAβN in presence of HN12b), 10 µg/mL; in [2] (Providencia sp. (MTCC 2102), PAβN in presence of HN12b) it was 58 µg/mL; in the assay on A. baumannii (MTCC1920) (A. baumannii (MTCC1920), PAβN in presence of HN12b) it was 59 µg/mL. For the same compound, the MIC90 was more than 128 µg/mL in the assay with A. baumannii (AB387) (A. baumannii (AB387), single drug alone (A, B, C)); more than 128 µg/mL in the assay with Enterococcus sp. (2105) (Enterococcus sp. (2105), single drug alone (A, B, C)); more than 128 µg/mL with Enterococcus sp. (1121) (Enterococcus sp. (1121), single drug alone (A, B, C)); more than 128 µg/mL in [1] (K. planticola (MTCC 2272), single drug alone (A, B, C)); 123 µg/mL with P. aeruginosa (MTCC1688) (P. aeruginosa (MTCC1688), single drug alone (A, B, C)); 64 µg/mL with E. coli ATCC25922 (E. coli ATCC25922, single drug alone (A, B, C)). In addition, the MIC90 in the assay on P. aeruginosa (Ps 366) (P. aeruginosa (Ps 366), single drug alone (A, B, C)) is 120.2 µg/mL; in the assay with Providencia sp. (P592) (Providencia sp. (P592), single drug alone (A, B, C)), more than 128 µg/mL; with K. planticola (1164) (K. planticola (1164), single drug alone (A, B, C)), more than 128 µg/mL; in assay [2] (Providencia sp. (MTCC 2102), single drug alone (A, B, C)) it was more than 128 µg/mL; in the assay with A. baumannii (MTCC1920) (A. baumannii (MTCC1920), single drug alone (A, B, C)) it was more than 128 µg/mL.
